In brackets after ≈: the same amount, converted by molar mass.
Assays:
[1] = tested on: Pseudomonas aeruginosa CVCC 3359 (PA); experiment: MIC, microplate dilution method; type: cell-based; conditions: Gram-negative, Mueller-Hinton broth, 37 °C, 18–24 h, read-out: MIC PA
Source text: (§1) According to microplate dilution method, all the prepared compounds were screened for their in vitro antibacterial activity. The investigation included three representative Gram-positive strains, including Staphylococcus aureus CICC 10384 (S. aureus), Staphylococcus albus CICC 20237 (S. albus) and methicillinresistant Staphylococcus aureus ATCC 43300 (MRSA), and two representative Gram-negative strains, including Escherichia coli CICC 10389 (E. coli) and Pseudomonas aeruginosa CVCC 3359 (PA). Harmine and cinnamic acid were used as reference drugs.
(§2) The antibacterial efficiency of all prepared compounds was determined using the microplate dilution method. All compounds were prepared into different concentrations of stock solution according to their solubility. The compounds were added to the 96 well plate and serially diluted in Mueller-Hinton broth. Three Gram-positive strains (S. aureus, S. albus and MRSA) and two Gram-negative strains (E. coli and PA) were cultivated and added to the 96 well plate. The initial concentration of bacteria should be higher than 10^5 CFU/mL. The samples were incubated at 37 °C for 18–24 h. The MIC was determined for compounds by observing change of clarity in the broth. The same procedure was repeated in triplicate.

[2] = tested on: methicillinresistant Staphylococcus aureus ATCC 43300 (MRSA); experiment: MIC, microplate dilution method; type: cell-based; conditions: Gram-positive, Mueller-Hinton broth, 37 °C, 18–24 h, read-out: MIC MRSA
Source text: as §1, §2

[3] = tested on: Escherichia coli CICC 10389 (E. coli); experiment: MIC, microplate dilution method; type: cell-based; conditions: Gram-negative, Mueller-Hinton broth, 37 °C, 18–24 h, read-out: MIC E. coli
Source text: as §1, §2

[4] = tested on: Staphylococcus aureus CICC 10384 (S. aureus); experiment: MIC, microplate dilution method; type: cell-based; conditions: Gram-positive, Mueller-Hinton broth, 37 °C, 18–24 h, read-out: MIC S. aureus
Source text: as §1, §2

[5] = tested on: Staphylococcus albus CICC 20237 (S. albus); experiment: MIC, microplate dilution method; type: cell-based; conditions: Gram-positive; Mueller-Hinton broth, 37 °C, 18–24 h; read-out: MIC S. albus
Source text: as §1, §2

[6] = tested on: S. aureus (CICC 10384); experiment: Bactericidal time-kill kinetics; type: cell-based, Staphylococcus aureus
Method: The bacteria S. aureus was prepared in Muellere Hinton broth at 37 °C for 6 h with shaking. The solution of 3c (1 × MIC and 6 × MIC), 5a (1 × MIC and 6 × MIC), harmine (1 × MIC and 6 × MIC) and saline (served as a control group) were separately added to the bacterial suspension so that the final bacterial concentration were 10^6~10^7 CFU/mL. At the predetermined time point (0, 0.5, 2, 4, 6, 12 and 24 h), […] of aliquots were serially diluted in normal saline, plated on sterile Muellere Hinton agar plates, and incubated at 37 °C for 24 h. After incubation, the viable colonies were counted and represented as log10 (CFU/mL). The same procedure was repeated in triplicate.
Figure 3 Time-kill kinetics of compound 3c (A) and 5a (B) at 1 × and 6 × MIC against S. aureus (CICC 10384).

Row | Compound | MIC [1] [mg/L] | MIC [2] [mg/L] | MIC [3] [mg/L] | MIC [4] [mg/L] | MIC [5] [mg/L] | melting point [°C] | time to 4-log10 reduction ([6]; 1 × MIC) | time to completely kill the bacteria ([6]; 6 × MIC) [h]
1 | O=C(O)/C=C/c1ccccc1 [Cinnamic acid] | 1120 (≈ 7590 µM) | 1120 (≈ 7590 µM) | 1120 (≈ 7590 µM) | 1120 (≈ 7590 µM) | 1120 (≈ 7590 µM) |  |  | 
2 | COc1ccc(/C=C/C(=O)OCCCn2c3cc(OC)ccc3c3ccnc(C)c32)cc1 [Compound 3a, 3-(7-Methoxy-1-methyl-9H-pyridine [3,4-b]indole-9-yl)propyl(E)-3-(4-methoxyphenyl) acrylate] | 325 (≈ 755 µM) | 1300 (≈ 3020 µM) | 650 (≈ 1510 µM) | 325 (≈ 755 µM) | 650 (≈ 1510 µM) | 133.2 to 133.9 |  | 
3 | COc1ccc2c3ccnc(C)c3n(CCCOC(=O)/C=C/c3cc(OC)c(OC)c(OC)c3)c2c1 [Compound 3b, 3-(7-Methoxy-1-methyl-9H-pyridine [3,4-b]indole-9-yl) propyl (E)-3-(3,4,5-trimethoxyphenyl) acrylate] | 319 (≈ 650 µM) | 638 (≈ 1300 µM) | 638 (≈ 1300 µM) | 319 (≈ 650 µM) | 638 (≈ 1300 µM) | 102.6 to 104.2 |  | 
4 | COc1ccc2c3ccnc(C)c3n(CCCOC(=O)/C(=C/c3cc(OC)c(OC)c(OC)c3)c3ccc(OC)c(OC)c3)c2c1 [Compound 3d, 3-(7-Methoxy-1-methyl-9H-pyridine [3,4-b]indole-9-yl) propyl (E)-2-(3,4-dimethoxyphenyl)-3-(3,4,5-trimethoxyphenyl) acrylate] | 362 (≈ 578 µM) | 362 (≈ 578 µM) | 725 (≈ 1160 µM) | 181 (≈ 289 µM) | 725 (≈ 1160 µM) | 173.6 to 175.2 |  | 
5 | COc1ccc(/C=C/C(=O)OCCCCn2c3cc(OC)ccc3c3ccnc(C)c32)cc1 [Compound 4a, 4-(7-Methoxy-1-methyl-9H-pyridine [3,4-b]indole-9-yl) butyl (E)-3-(4-methoxyphenyl) acrylate] | 305 (≈ 686 µM) | 610 (≈ 1370 µM) | 152 (≈ 343 µM) | 305 (≈ 686 µM) | 305 (≈ 686 µM) | 118.7 to 120.2 |  | 
6 | COc1ccc2c3ccnc(C)c3n(CCCCOC(=O)/C=C/c3cc(OC)c(OC)c(OC)c3)c2c1 [Compound 4b, 4-(7-Methoxy-1-methyl-9H-pyridine [3,4-b]indole-9-yl) butyl (E)-3-(3,4,5-trimethoxyphenyl) acrylate] | 450 (≈ 892 µM) | 450 (≈ 892 µM) | 450 (≈ 892 µM) | 112 (≈ 223 µM) | 225 (≈ 446 µM) | 95.7 to 96.3 |  | 
7 | COc1ccc2c3ccnc(C)c3n(CCCCOC(=O)/C=C/c3ccccc3[N+](=O)[O-])c2c1 [Compound 4c, 4-(7-Methoxy-1-methyl-9H-pyridine [3,4-b]indole-9-yl) butyl (E)-3-(2-nitrophenyl) acrylate] | 388 (≈ 843 µM) | 1550 (≈ 3370 µM) | 775 (≈ 1690 µM) | 1550 (≈ 3370 µM) | 1550 (≈ 3370 µM) | 130.9 to 132.2 |  | 
8 | COc1ccc2c3ccnc(C)c3n(CCCCOC(=O)/C(=C/c3cc(OC)c(OC)c(OC)c3)c3ccc(OC)c(OC)c3)c2c1 [Compound 4d, 4-(7-Methoxy-1-methyl-9H-pyridine [3,4-b]indole-9-yl) butyl (E)-2-(3,4-dimethoxyphenyl)-3-(3,4,5-trimethoxyphenyl) acrylate] | 212 (≈ 332 µM) | 106 (≈ 166 µM) | 212 (≈ 332 µM) | 26.6 (≈ 41.5 µM) | 53.1 (≈ 82.9 µM) | 95.7 to 97.4 |  | 
9 | COc1ccc(/C=C/C(=O)OCCCCCn2c3cc(OC)ccc3c3ccnc(C)c32)cc1 [Compound 5a, 5-(7-Methoxy-1-methyl-9H-pyridine [3,4-b]indole-9-yl) amyl (E)-3-(4-methoxyphenyl) acrylate] | 125 (≈ 273 µM) | 62.5 (≈ 136 µM) | 250 (≈ 545 µM) | 15.6 (≈ 34.1 µM) | 15.6 (≈ 34.1 µM) | 91.1 to 92.3 | about 24 h | ≤ 12
10 | COc1ccc2c3ccnc(C)c3n(CCCCCOC(=O)/C=C/c3cc(OC)c(OC)c(OC)c3)c2c1 [Compound 5b, 5-(7-Methoxy-1-methyl-9H-pyridine [3,4-b]indole-9-yl) amyl (E)-3-(3,4,5-trimethoxyphenyl) acrylate] | 1140 (≈ 2190 µM) | 2280 (≈ 4390 µM) | 1140 (≈ 2190 µM) | 1140 (≈ 2190 µM) | 2280 (≈ 4390 µM) | 103.7 to 104.7 |  | 
11 | COc1ccc2c3ccnc(C)c3n(CCCCCOC(=O)/C=C/c3ccccc3[N+](=O)[O-])c2c1 [Compound 5c, 5-(7-Methoxy-1-methyl-9H-pyridine [3,4-b]indole-9-yl) amyl (E)-3-(2-nitrophenyl) acrylate] | 220 (≈ 465 µM) | 220 (≈ 465 µM) | 220 (≈ 465 µM) | 110 (≈ 232 µM) | 110 (≈ 232 µM) | 127.4 to 130 |  | 
12 | COc1ccc2c3ccnc(C)c3n(CCCCCOC(=O)/C(=C/c3cc(OC)c(OC)c(OC)c3)c3ccc(OC)c(OC)c3)c2c1 [Compound 5d, 5-(7-Methoxy-1-methyl-9H-pyridine [3,4-b]indole-9-yl) pentyl (E)-2-(3,4-dimethoxyphenyl)-3-(3,4,5-trimethoxyphenyl) acrylate] | 381 (≈ 582 µM) | 95.3 (≈ 146 µM) | 762 (≈ 1160 µM) | 23.8 (≈ 36.4 µM) | 95.3 (≈ 146 µM) | 117.4 to 119.9 |  | 
13 | COc1ccc(/C=C/C(=O)OCCCCCCn2c3cc(OC)ccc3c3ccnc(C)c32)cc1 [Compound 6a, 6-(7-Methoxy-1-methyl-9H-pyridine [3,4-b]indole-9-yl) hexyl (E)-3-(4-methoxyphenyl) acrylate] | 331 (≈ 701 µM) | 331 (≈ 701 µM) | 662 (≈ 1400 µM) | 82.8 (≈ 175 µM) | 166 (≈ 350 µM) | 88.7 to 90.4 |  | 
14 | COc1ccc2c3ccnc(C)c3n(CCCCCCOC(=O)/C=C/c3cc(OC)c(OC)c(OC)c3)c2c1 [Compound 6b, 6-(7-Methoxy-1-methyl-9H-pyridine [3,4-b]indole-9-yl) hexyl (E)-3-(3,4,5-trimethoxyphenyl) acrylate] | 305 (≈ 573 µM) | 306 (≈ 574 µM) | 305 (≈ 573 µM) | 152 (≈ 286 µM) | 152 (≈ 286 µM) | 73.7 to 73.9 |  | 
15 | COc1ccc2c3ccnc(C)c3n(CCCCCCOC(=O)/C=C/c3ccccc3[N+](=O)[O-])c2c1 [Compound 6c, 6-(7-Methoxy-1-methyl-9H-pyridine [3,4-b]indole-9-yl) hexyl(E)-3-(2-nitrophenyl) acrylate] | 750 (≈ 1540 µM) | 1500 (≈ 3080 µM) | 750 (≈ 1540 µM) | 375 (≈ 769 µM) | 750 (≈ 1540 µM) | 117.3 to 119.9 |  | 
16 | COc1ccc2c3ccnc(C)c3n(CCCCCCOC(=O)/C(=C/c3cc(OC)c(OC)c(OC)c3)c3ccc(OC)c(OC)c3)c2c1 [Compound 6d, 6-(7-Methoxy-1-methyl-9H-pyridine [3,4-b]indole-9-yl) hexyl (E)-2-(3,4-dimethoxyphenyl)-3– (3,4,5-trimethoxyphenyl) acrylate] | 212 (≈ 318 µM) | 212 (≈ 318 µM) | 212 (≈ 318 µM) | 53.1 (≈ 79.4 µM) | 53.1 (≈ 79.4 µM) | 113.1 to 115 |  | 

— paper PMC8400480, “Synthesis, Antibacterial and Pharmacokinetic Evaluation of Novel Derivatives of Harmine N^9-Cinnamic Acid” (Molecules, 2021)
